Measurements reported in patent US4208327A, “5-Aryl-1-(2-oxazolin-2-yl)-1H-1,4-benzodiazepines and related compounds” (G. D. Searle & Co., priority 1979, dated 1980).

Assays:
[1] = Blockade of pentylenetetrazole induced clonic convulsions, intragastric; assay type: in vivo, mice; details: for ED50: Mus musculus, po
Method: Exp. Ther., 108, 168 (1953)]. […] Both test compounds were administered intragastrically at specific time periods prior to the pentylenetetrazole challenge, and the ED50 for blockade of clonic convulsions was determined for each time period. Duration of activity is inferred from increases in the ED50 with time.

[2] = Blockade of pentylenetetrazole induced clonic convulsions, intravenous; assay type: in vivo, mice; details: for ED50: Mus musculus, read-out: ED50 (95% confidence limits), anti-pentylenetetrazole effect
[3] = Multiple VI-FR conflict procedure (anti-conflict, anti-anxiety); assay type: in vivo, squirrel monkey; details: intragastric
[4] = Comparison of durations of anti-conflict activity, drug crossover design, 16 hours after treatment; assay type: in vivo, squirrel monkey; details: molar equivalent dose, 16 hours later; for bar pressing rate during the conflict segments, % of pre-compound control levels: 14 squirrel monkeys, crossover
[5] = Potentiation of a sub-hypnotic dose of pentobarbital sodium (loss of righting reflex); assay type: in vivo, mice; details: for ED50 (95% confidence limits), potentiation of pentobarbital sodium (loss of righting reflex): pentobarbital sodium 20 mg/kg i.p.
Excerpt: In this procedure an ED50 for loss of righting reflex was established.

[6] = Rotarod test (muscle relaxant); assay type: in vivo, mice; details: intragastric; for ED50: Mus musculus, po, read-out: Rotarod ED50 (95% confidence limits)
Method: Using this procedure [after Dunham, N.W. and T.S. Miya, J. Amer. Pharm. […] The compounds were administered intragastrically to mice at varying time periods before being placed on the horizontal rotating (4.4 rpm) rod. Different groups of mice were assigned to each time period so that a subject was tested only once. A testing trial consisted of two opportunities to stay on the rod for one minute. ED50 's were calculated for each time period.

[7] = 5 min, read-out: ED50 (95% confidence limits), anti-pentylenetetrazole effect, 5 min
[8] = 0.5 h, read-out: ED50 (95% confidence limits), anti-pentylenetetrazole effect, 30 min
[9] = read-out: ED50 (95% confidence limits), anti-pentylenetetrazole effect, 15 min
[10] = read-out: ED50 (95% confidence limits), anti-pentylenetetrazole effect, 1 hour
[11] = read-out: ED50 (95% confidence limits), anti-pentylenetetrazole effect, 2 hours
[12] = read-out: ED50 (95% confidence limits), anti-pentylenetetrazole effect, 4 hours
[13] = read-out: ED50 (95% confidence limits), anti-pentylenetetrazole effect, 8 hours
[14] = intragastric, .25 hours, 15 min

## Clc1ccc2c(c1)C(c1ccccc1Cl)=NCCN2C1=NCCO1 [Compound I, 7-chloro-5-(o-chlorophenyl)-2,3-dihydro-1-(2-oxazolin-2-yl)-1H-1,4-benzodiazepine]
[1]
  time to peak anti-pentylenetetrazole activity: ≤ 15 min
  increase of ED50 by 8 hours: about 20 fold
[1]; 30 minutes
  change of ED50 in 30 minutes: nearly doubled
[1]; [7]
  ED50: 3.8 mg/kg
[1]; [8]
  ED50: 1.9 mg/kg
[1]; [9]
  ED50: 1 mg/kg
[1]; [10]
  ED50: 1.8 mg/kg
[1]; [11]
  ED50: 6.2 mg/kg
[1]; [12]
  ED50: 7.1 mg/kg
[1]; [13]
  ED50: 19.6 mg/kg
[1]; compared with diazepam
  duration of activity: much shorter duration of activity than Diazepam
[2]; 1 min, intravenous, 1 min
  ED50: 0.12 mg/kg
[2]; 0.5 h, intravenous, 30 min
  ED50: 0.23 mg/kg
[2]; intravenous, 15 min
  ED50: 0.18 mg/kg
[2]; intravenous, 1 hour
  ED50: 0.57 mg/kg
[2]; intravenous, 2 hours
  ED50: 1.44 mg/kg
[2]; intravenous, 4 hours
  ED50: 4.79 mg/kg
[2]; intravenous, 8 hours
  ED50: 17.8 mg/kg
  increase of ED50 over the 8 hour period: ~150 fold
[2]; intravenous
  time to peak activity: one
[2]; intravenous as well as intragastric route
  anti-convulsant effectiveness: effective as an anti-convulsant
[2]; intravenous, compared with diazepam
  duration of activity: shorter duration of activity
[3]; 1.26 mg/kg, N 5
  Conflict (FR) bar pressing rate, percentage of average pre-compound control rate: 1519%
  Non-Conflict (VI) bar pressing rate, percentage of average pre-compound control rate: 46%
[3]; .07 mg/kg, N 5
  Conflict (FR) bar pressing rate, percentage of average pre-compound control rate: 281%
  Non-Conflict (VI) bar pressing rate, percentage of average pre-compound control rate: 100%
[3]; .07 to 1.26 mg/kg
  dose response of bar pressing rates during the conflict segment: clear dose responsive increase in bar pressing rates during the conflict segment
[3]; .126 mg/kg, N 6
  Conflict (FR) bar pressing rate, percentage of average pre-compound control rate: 514%
  Non-Conflict (VI) bar pressing rate, percentage of average pre-compound control rate: 101%
[3]; .404 mg/kg, N 6
  Conflict (FR) bar pressing rate, percentage of average pre-compound control rate: 1286%
  Non-Conflict (VI) bar pressing rate, percentage of average pre-compound control rate: 100%
[4]
  duration of anti-anxiety (anti-conflict) action, in words: shorter duration of action of anti-anxiety effect
  bar pressing rate during the conflict segments, % of pre-compound control levels: 123%
[5]; compared with a standard benzodiazepine (diazepam)
  duration of sedative-hypnotic activity: shorter duration of sedative-hypnotic activity
[5]; intragastric, 1.0 hours
  ED50 (95% confidence limits), potentiation of pentobarbital sodium (loss of righting reflex): 24.1(17.9-32.4) mg/kg
[5]; intragastric, 2.0 hours
  ED50 (95% confidence limits), potentiation of pentobarbital sodium (loss of righting reflex): 39.1(28.1-54.3) mg/kg
[5]; [14]
  ED50 (95% confidence limits), potentiation of pentobarbital sodium (loss of righting reflex): 5.6(3.8-8.4) mg/kg
[5]; intragastric, two hour period
  increase of ED50 for potentiating pentobarbital sodium: about 7 fold
[6]; 0.08 h, .08 hours
  ED50: 8.5 mg/kg
[6]; 0.5 h, .5 hours
  ED50: 8.9 mg/kg
[6]; 1.0 hours
  ED50: 24 mg/kg
[6]; 2.0 hours
  ED50: 74.9 mg/kg
[6]; .25 hours
  ED50: 2.9 mg/kg
[6]
  increase of rotarod ED50 from 15 minutes to 2 hours: 25 fold
  time to peak effect (rotarod): ≤ 15 min
[6]; compared with diazepam
  duration of action (rotarod): shorter duration of action
[6]; two hours
  loss of potency over the two hour period (rotarod): rapidly lost potency

## CN1C(=O)CN=C(c2ccccc2)c2cc(Cl)ccc21 [Diazepam, diazepam, reference compound]
[1]
  time to peak anti-pentylenetetrazole activity: ≤ 15 min
  increase of ED50 by 8 hours: 2 fold
[1]; [7]
  ED50: 1.1 mg/kg
[1]; [8]
  ED50: 0.8 mg/kg
[1]; [9]
  ED50: 0.9 mg/kg
[1]; [10]
  ED50: 0.8 mg/kg
[1]; [11]
  ED50: 0.7 mg/kg
[1]; [12]
  ED50: 1.6 mg/kg
[1]; [13]
  ED50: 1.4 mg/kg
[2]; 1 min, intravenous, 1 min
  ED50: 0.07 mg/kg
[2]; 0.5 h, intravenous, 30 min
  ED50: 0.23 mg/kg
[2]; intravenous, 15 min
  ED50: 0.26 mg/kg
[2]; intravenous, 1 hour
  ED50: 0.48 mg/kg
[2]; intravenous, 2 hours
  ED50: 0.75 mg/kg
[2]; intravenous, 4 hours
  ED50: 1.16 mg/kg
[2]; intravenous, 8 hours
  ED50: 1.78 mg/kg
  increase of ED50 over the 8 hour period: 25 fold
[4]
  duration of anti-anxiety (anti-conflict) action, in words: still produced pronounced anti-conflict effects
  bar pressing rate during the conflict segments, % of pre-compound control levels: 1265%
[5]; intragastric, 1.0 hours
  ED50 (95% confidence limits), potentiation of pentobarbital sodium (loss of righting reflex): 3.8(2.7-5.4) mg/kg
[5]; intragastric, 2.0 hours
  ED50 (95% confidence limits), potentiation of pentobarbital sodium (loss of righting reflex): 3.6(2.4-5.4) mg/kg
[5]; [14]
  ED50 (95% confidence limits), potentiation of pentobarbital sodium (loss of righting reflex): 4.1(2.7-6.3) mg/kg
